# Experimental data from patent US6313180A, “Steroid compounds having contraceptive and anti-osteoporosis activity” (priority 1997, dated 2001).
# Where two headings read alike, the source gives them in different places.
# Key:
# ovariectomised rats = test: Prevention of ovariectomy-induced bone loss in rats (anti-osteoporosis test, pQCT trabecular bone mineral density); type: in vivo, rat (female Wistar); conditions: Rattus norvegicus, 672 h, read-out: Osteoporosis ED50
# Source text: Ovariectomy induces in rats bone loss, which is due to oestrogen deficiency. Administration of oestrogenic compounds prevents this effect. The test is used to evaluate a compound for anti-osteoporotic activity in ovariectomised rats. The effect on bone mass can be evaluated by peripheral Quantitave Computed Tomography (pQCT) measurement of trabecular bone mineral density.
# Mature virgin female Wistar rats preferentially, 225-250 g. Strain: Hsd/Cpd:Wu, SPF-bred by Harlan, CPB, Zeist, The Netherlands.
# On day 1 of the experiment the rats are weighed and distributed over the cages in order of body weight. The rat with the lowest body weight in the first cage and the heaviest rat in the last cage. Treatments are randomized over the rats per block. A block (group of 3+n treatments) consists of 1 Intact placebo rat, 1 OVX placebo rat, 1 OVX reference rat and 1 rat of each n treatments.
# Sham-operation and ovariectomy are performed under ether anaesthesia. After recovery from the anaesthesia, within 24 h, vehicle, reference compound or test compound is administered once or twice daily for 4 weeks.
# Trabecular bone mineral density (mg/cm^3) of the metaphyseal part of the femur was measured with a pQCT (peripheral Quantitative Computed Tomography machine; XCT 960A, Stratec, Birkenfeld, Germany) directly after autopsy on fresh tissue. Two 360° scans, which have, due to the X-ray beam, a standard thickness of 1 mm were taken. The scans have a resolution of 0.148×0.148 mm. One scan was taken at 5.5 mm from the distal end of the femur, where trabecular bone mineral density of the metaphyseal part was measured. The other scan was taken in the diaphysis at 13.5 mm from the distal end, which contains no trabecular bone. In the latter scan cortical bone mineral density and the geometrical parameters, such as cortical thickness, total bone area, outer and inner diameter, were determined. Intra- and inter-assay variation for the measurement of trabecular bone mineral density in the distal femur were about 2-3%. The XCT-960A was calibrated with a standard of hydroxyapatite embedded in acrylic plastic.
# Ovariectomy causes a statistically significant decrease in trabecular bone mineral density (P≤0.05, 2 way ANOVA).
# The active dose (ED50) is the dose where a mean proportional difference in trabecular bone mineral density between 40 and 60% is reached as compared to the sham and ovariectomised group.
# (§1) Several of the compounds according to the Examples I-VI, as well as other compounds according to the invention synthesized in analogous manner, were subjected to the tests described in the Examples VII and VIII. The results are described in the Table, in which the type of A-ring and the substitution at carbon atoms nos. 7, 11, and 17 is indicated. In the columns captioned E and P, the relative binding affinities for the estrogen and progesterone receptors are given; the ED50 results of the AllenDoisy and the McPhail tests have been indicated in μg/kg. In the column captioned "Osteoporosis", the ED50 results of the anti-osteoporosis test are given (dose in μg/kg, day, as described above).
# [1] = system: human progesterone (P) receptor; test: Relative progesterone receptor binding affinity, cytoplasmic receptors of MCF-7 cells; conditions: relative to (16α)-16-ethyl-21-hydroxy-19-norpregn-4-ene-3,20-dione, 16 h, 4° C
# [2] = target: T1, human estradiol (E) receptor (Homo sapiens, UniProt P03372); type: binding
# T1 construct: present in human breast tumor cells (MCF-7 cells); endogenous in cells; host or cells: MCF-7 human breast tumor cells
# T1 sequence (P03372 1-595): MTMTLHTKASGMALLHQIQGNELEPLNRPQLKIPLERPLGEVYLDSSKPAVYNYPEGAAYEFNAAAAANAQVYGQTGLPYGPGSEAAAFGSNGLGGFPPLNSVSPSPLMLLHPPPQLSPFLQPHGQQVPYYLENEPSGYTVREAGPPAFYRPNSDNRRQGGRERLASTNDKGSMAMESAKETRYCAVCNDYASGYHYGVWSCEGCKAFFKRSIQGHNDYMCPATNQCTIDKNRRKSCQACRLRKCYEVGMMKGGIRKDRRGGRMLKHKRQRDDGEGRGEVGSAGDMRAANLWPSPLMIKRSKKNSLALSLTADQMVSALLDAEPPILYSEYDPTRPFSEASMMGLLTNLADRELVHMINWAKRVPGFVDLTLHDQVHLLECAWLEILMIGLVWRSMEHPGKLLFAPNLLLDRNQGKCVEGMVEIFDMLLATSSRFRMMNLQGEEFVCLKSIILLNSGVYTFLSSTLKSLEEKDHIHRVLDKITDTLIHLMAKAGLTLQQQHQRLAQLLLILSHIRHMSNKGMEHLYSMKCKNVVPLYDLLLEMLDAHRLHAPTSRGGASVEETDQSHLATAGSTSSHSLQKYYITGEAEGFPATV
# Description: The relative estradiol receptor binding affinity was measured in the same manner as described above but using 17βestradiol as a reference.
# as §1
# [3] = Allen Doisy test for estrogenic activity in vivo; conditions: read-out: AllenDoisy ED50
# [4] = McPhail test for progestagenic activity in vivo; conditions: read-out: McPhail ED50
# [5] = oral administration, ovariectomised rats, once or twice daily for 4 weeks, 40-60% proportional difference in trabecular bone mineral density
# [6] = oral administration, estrogenic activity
# [7] = oral administration, progestagenic activity
Compound,ED50 (ovariectomised rats; [5]),Relative binding affinity to the human progesterone (P) receptor [1],Relative binding affinity to the human estradiol (E) receptor [2],"ED50 [3, 6]","ED50 [4, 7]",ED50 (ovariectomised rats; po),ED50 ([3]; po),ED50 ([4]; po)
CCC[C@H]1C[C@@H]2C[C@H]3[C@@H]4CCc5cc(O)ccc5[C@H]4CC[C@]3(C)[C@]2(O)C1 [Code 37969],> 1 mg/kg,25%,3%,> 1 mg/kg,4 mg/kg,–,–,–
C[C@H]1C[C@@H]2C[C@H]3[C@H]4[C@H](CC[C@]3(C)[C@]2(O)C1)[C@H]1CCC(=O)C=C1C[C@H]4C [Code 38049],–,250%,–,–,–,> 1 mg/kg,> 2 mg/kg,1 mg/kg
C[C@H]1C[C@@]2(C)[C@@H](C[C@H]3C[C@H](CN=[N+]=[N-])C[C@]32O)[C@@H]2CCC3=CC(=O)CC[C@@H]3[C@H]21 [Code 38322],> 1 mg/kg,44%,–,> 0.5 mg/kg,0.063 mg/kg,–,–,–
CCC[C@@H]1Cc2cc(O)ccc2[C@H]2CC[C@@]3(C)[C@@H](C[C@H]4C[C@@H](C)C[C@]43O)[C@H]12 [Code 38514],< 0.032 mg/kg,4%,11%,0.024 mg/kg,> 2 mg/kg,–,–,–
CC[C@H]1C[C@@H]2C[C@H]3[C@@H]4CCC5=CC(=O)CC[C@@H]5[C@H]4[C@@H](CC)C[C@]3(C)[C@]2(O)C1 [Code 38610],0.125 mg/kg,0.3%,–,0.032 mg/kg,> 0.125 mg/kg,–,–,–
CCC[C@H]1C[C@@H]2C[C@H]3[C@@H]4CCC5=CC(=O)CC[C@@H]5[C@H]4CC[C@]3(C)[C@]2(O)C1 [Code 37977],–,151%,–,–,–,> 1 mg/kg,> 4 mg/kg,0.5 mg/kg
CCC[C@@H]1C[C@@H]2C[C@H]3[C@@H]4CCC5=C(CCC(=O)C5)[C@H]4[C@@H](CC)C[C@]3(C)[C@]2(O)C1 [Code 38151],–,8%,–,0.125 mg/kg,> 1 mg/kg,–,–,–
CCC[C@@H]1CC2=CC(=O)CC[C@@H]2[C@H]2CC[C@@]3(C)[C@@H](C[C@H]4C[C@@H](C)C[C@]43O)[C@H]12 [Code 38550],0.125 mg/kg,36%,–,0.125 mg/kg,> 0.125 mg/kg,–,–,–
CCC[C@H]1C[C@@H]2C[C@H]3[C@@H]4CCC5=CC(=O)CC[C@@H]5[C@H]4[C@@H](CC)C[C@]3(C)[C@]2(O)C1 [Code 38577],0.25 mg/kg,139%,–,0.192 mg/kg,> 0.5 mg/kg,–,–,–
C[C@]12CC[C@H]3[C@@H](CCC4=CC(=O)CC[C@@H]43)[C@@H]1C[C@H]1CCCC[C@]12O [Code 37518],–,115%,–,–,–,> 2 mg/kg,> 4 mg/kg,0.125 mg/kg
CC[C@H]1C[C@@]2(C)[C@@H](C[C@H]3CCCC[C@]32O)[C@@H]2CCC3=CC(=O)CC[C@@H]3[C@@H]12 [Code 37943],–,96%,–,–,–,0.4 mg/kg,0.192 mg/kg,1 mg/kg
C[C@H]1C[C@@H]2C[C@H]3[C@@H]4CCC5=CC(=O)CC[C@@H]5[C@H]4CC[C@]3(C)[C@]2(O)C1 [Code 38541],–,58%,–,–,–,> 1 mg/kg,> 0.5 mg/kg,0.125 mg/kg
CCC[C@@H]1C[C@@H]2C[C@H]3[C@@H]4CCc5cc(O)ccc5[C@H]4CC[C@]3(C)[C@]2(O)C1 [Code 37968],–,6%,1%,> 1 mg/kg,> 4 mg/kg,–,–,–
C[C@]12CC[C@@H]3c4ccc(O)cc4CC[C@H]3[C@@H]1C[C@H]1CCCC[C@]12O [Code 37469],> 4 mg/kg,23%,1%,> 4 mg/kg,> 2 mg/kg,–,–,–
"CCCC[C@@H]1C[C@@H]2C[C@H]3[C@@H]4CCC5=CC(=O)CC[C@@H]5[C@H]4[C@@H](C)C[C@]3(C)[C@]2(O)C1 [Code 38276, (4'R,11-beta,16-beta-17-beta)-4'-butyl-4',5',16,17-tetrahydro-17-hydroxy-11-methyl-3'H-cyclopenta[16,17]estra-4,16-dien-3-one]",> 1 mg/kg,115%,–,> 0.5 mg/kg,0.125 mg/kg,–,–,–
CCC[C@H]1C[C@H]2C[C@H]3[C@@H]4[C@H](C)Cc5cc(O)ccc5[C@H]4CC[C@]3(C)[C@@]2(O)C1 [Code 38079],–,1%,< 1%,> 4 mg/kg,–,–,–,–
CC[C@H]1C[C@@]2(C)[C@@H](C[C@H]3CCCC[C@]32O)[C@@H]2CCc3cc(O)ccc3[C@@H]12 [Code 37862],< 0.016 mg/kg,2%,96%,0.032 mg/kg,–,–,–,–
C[C@]12CC[C@@H]3C4=C(CC[C@H]3[C@@H]1C[C@H]1CCCC[C@]12O)CC(=O)CC4 [Code 37516],> 2 mg/kg,13%,–,> 4 mg/kg,1 mg/kg,–,–,–
CCC[C@@H]1Cc2cc(O)ccc2[C@H]2CC[C@@]3(C)[C@@H](C[C@@H]4C[C@@H](C)C[C@@]43O)[C@H]12 [Code 38513],–,–,0.2%,2 mg/kg,> 0.125 mg/kg,–,–,–
C[C@@H]1Cc2cc(O)ccc2[C@H]2CC[C@@]3(C)[C@@H](C[C@H]4CCCC[C@]43O)[C@H]12 [Code 37828],0.5 mg/kg,10%,11%,0.192 mg/kg,–,–,–,–
